# Target: LRRK2 wt (Homo sapiens, UniProt Q5S007)
# Test: Kinase activity inhibition assay (ADP-Glo), LRRK2 wt
# Assay type: biochemical
# Settings: read-out: LRRK2 wt inhibition rate at 100 nM, ATP 20 µM, compound at 100 nM
# Experimental: The kinase activity inhibition assay was performed by ICE Bioscience (Beijing) using ADP-Glo and HTRF methods.
# Table 1.1-1 ADP-Glo Buffer
# Table 1.2-1 ADP-Glo Kinase and Substrate Formulation
# SD is the standard error, and AVE is the average value. Table 2-1 LRRK2 Activity Inhibition Test Results
# Sequence of LRRK2 wt (Q5S007 whole entry): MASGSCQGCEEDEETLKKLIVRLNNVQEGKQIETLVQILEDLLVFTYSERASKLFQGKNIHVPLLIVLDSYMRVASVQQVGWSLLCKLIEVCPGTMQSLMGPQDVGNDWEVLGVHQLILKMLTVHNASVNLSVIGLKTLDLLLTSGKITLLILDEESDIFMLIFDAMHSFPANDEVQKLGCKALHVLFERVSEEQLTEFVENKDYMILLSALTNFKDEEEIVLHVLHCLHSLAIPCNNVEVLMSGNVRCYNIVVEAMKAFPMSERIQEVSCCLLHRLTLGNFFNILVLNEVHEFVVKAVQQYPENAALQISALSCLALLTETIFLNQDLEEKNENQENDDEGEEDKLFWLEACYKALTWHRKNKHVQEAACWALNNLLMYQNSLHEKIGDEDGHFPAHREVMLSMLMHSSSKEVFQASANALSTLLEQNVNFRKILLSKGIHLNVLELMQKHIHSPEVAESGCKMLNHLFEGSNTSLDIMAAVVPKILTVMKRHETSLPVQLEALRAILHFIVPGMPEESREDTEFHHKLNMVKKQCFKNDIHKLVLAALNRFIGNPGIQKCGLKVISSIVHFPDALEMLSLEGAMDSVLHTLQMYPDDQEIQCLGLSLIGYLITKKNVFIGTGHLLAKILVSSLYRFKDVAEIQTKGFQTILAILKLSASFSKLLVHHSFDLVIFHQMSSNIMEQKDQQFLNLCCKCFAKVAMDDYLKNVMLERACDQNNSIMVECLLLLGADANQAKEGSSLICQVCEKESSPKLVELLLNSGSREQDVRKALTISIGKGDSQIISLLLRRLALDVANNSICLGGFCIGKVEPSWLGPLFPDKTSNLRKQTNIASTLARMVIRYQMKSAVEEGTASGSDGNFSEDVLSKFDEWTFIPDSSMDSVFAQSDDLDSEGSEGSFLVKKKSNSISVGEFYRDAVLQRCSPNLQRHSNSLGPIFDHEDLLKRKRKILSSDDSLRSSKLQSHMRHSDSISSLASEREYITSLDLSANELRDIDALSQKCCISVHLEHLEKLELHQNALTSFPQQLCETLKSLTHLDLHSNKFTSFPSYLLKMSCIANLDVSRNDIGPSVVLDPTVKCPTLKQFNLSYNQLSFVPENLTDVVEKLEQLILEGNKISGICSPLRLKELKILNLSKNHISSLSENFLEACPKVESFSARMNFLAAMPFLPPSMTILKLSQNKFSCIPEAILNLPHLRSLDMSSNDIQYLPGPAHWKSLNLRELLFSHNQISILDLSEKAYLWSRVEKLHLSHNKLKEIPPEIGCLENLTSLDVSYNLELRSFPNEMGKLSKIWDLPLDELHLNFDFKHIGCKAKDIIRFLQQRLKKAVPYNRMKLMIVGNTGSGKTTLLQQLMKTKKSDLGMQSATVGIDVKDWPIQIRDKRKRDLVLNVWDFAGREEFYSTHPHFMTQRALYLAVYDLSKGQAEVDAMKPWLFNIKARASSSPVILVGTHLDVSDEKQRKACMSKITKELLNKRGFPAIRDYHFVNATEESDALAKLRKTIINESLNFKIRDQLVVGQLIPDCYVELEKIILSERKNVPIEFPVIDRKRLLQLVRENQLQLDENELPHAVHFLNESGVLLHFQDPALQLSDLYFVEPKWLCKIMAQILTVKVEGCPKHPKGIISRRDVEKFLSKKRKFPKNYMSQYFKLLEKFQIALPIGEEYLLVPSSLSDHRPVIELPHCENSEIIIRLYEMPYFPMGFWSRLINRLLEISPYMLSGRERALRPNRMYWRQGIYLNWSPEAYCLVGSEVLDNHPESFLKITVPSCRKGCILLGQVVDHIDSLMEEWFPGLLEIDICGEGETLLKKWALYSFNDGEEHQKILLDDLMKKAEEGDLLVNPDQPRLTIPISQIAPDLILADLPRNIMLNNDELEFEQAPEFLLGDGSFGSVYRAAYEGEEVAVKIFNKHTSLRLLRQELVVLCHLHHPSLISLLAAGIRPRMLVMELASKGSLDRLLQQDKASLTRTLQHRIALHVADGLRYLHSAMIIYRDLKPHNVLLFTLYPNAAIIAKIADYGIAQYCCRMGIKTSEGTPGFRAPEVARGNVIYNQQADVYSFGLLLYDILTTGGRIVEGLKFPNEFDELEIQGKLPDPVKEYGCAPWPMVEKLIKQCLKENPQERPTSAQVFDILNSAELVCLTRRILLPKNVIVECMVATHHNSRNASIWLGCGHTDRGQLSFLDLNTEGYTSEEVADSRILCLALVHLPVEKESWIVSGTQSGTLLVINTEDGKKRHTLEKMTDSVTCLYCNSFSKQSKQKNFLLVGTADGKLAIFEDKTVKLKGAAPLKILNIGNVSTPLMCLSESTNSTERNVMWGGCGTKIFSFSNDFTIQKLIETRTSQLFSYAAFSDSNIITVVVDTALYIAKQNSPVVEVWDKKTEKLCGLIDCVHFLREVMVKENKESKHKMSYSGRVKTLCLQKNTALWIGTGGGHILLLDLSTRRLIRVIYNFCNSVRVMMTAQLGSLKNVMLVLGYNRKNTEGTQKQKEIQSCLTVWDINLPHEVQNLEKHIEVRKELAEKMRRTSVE
row,inhibition at 0.1 µM [%],SMILES
1,55,"Cc1nn2cc1Nc1ncc(C(F)(F)F)c(n1)NCCCOCCNC(=O)C2(C)C [Example T-2, (E)-3^3,4,4-Trimethyl-1^5-(trifluoromethyl)-3^1H-9-oxa-2,6,13-triaza-1(2,4)-pyrimidina-3(4,1)-pyrazolacyclotridecan-5-one]"
2,-0.5,"Cc1nn2cc1Nc1ncc3[nH]nc(c3n1)CCCNC(=O)C2(C)C [Example T-9, (E)-3^3,4,4-Trimethyl-1^1H,3^1H-2,6-diaza-1(5,3)pyrazolo[4,3-d]pyrimidine-3(4,1)-pyrazolacyclononan-5-one]"
3,6.61,"Cc1nn2cc1Nc1ncc3[nH]cc(c3n1)CCCNC(=O)C2(C)C [Example T-18, (E)-3^3,4,4-Trimethyl-1^5H,3^1H-2,6-diaza-1(2,7)-pyrrolo[3,2-d]pyrimidine-3(4,1)-pyrazolacyclononan-5-one]"
4,11.6,"Cc1nn2cc1Nc1ncc3c(n1)c(nn3C)CCCNC(=O)C2(C)C [Example T-19, (E)-1^1,3^3,4,4-Tetramethyl-1^1H,3^1H-2,6-diaza-1(5,3)-pyrazolo[4,3-d]pyrimidine-3(4,1)-pyrazinacyclononan-5-one]"
5,0.84,"Cc1nn2cc1Nc1ncc3nn(C)c(c3n1)CCCNC(=O)C2(C)C [Example T-20, (1^3E,1^4Z,3^4E)-1^2,3^3,4,4-Tetramethyl-1^2H,3^1H-2,6-diaza-1(5,3)-pyrazolo[4,3-d]pyrimidine-3(4,1)-pyrazinacyclononan-5-one]"
6,60.1,"Cc1nn2cc1Nc1ncc3c(n1)c(cn3C)CCCNC(=O)C2(C)C [Example T-21, (E)-1^5,3^3,4,4-Tetramethyl-1^5H,3^1H-2,6-diaza-1(2,7)-pyrrolo[3,2-d]pyrimidine-3(4,1)-pyrazolacyclononan-5-one]"
7,92.5,"Cc1nn2cc1Nc1ncc3c(Cl)cn(c3n1)CCCCNC(=O)C2(C)C [Example T-22, (E)-1^5-Chloro-3^3,4,4-trimethyl-1^7H,3^1H-2,6-diaza-1(2,7)-pyrrolo[2,3-d]pyrimidine-3(4,1)-pyrazolacyclodecan-5-one]"
8,57.3,"Cc1nn2cc1Nc1ncc3ccc(n3n1)CCCNC(=O)C2(C)C [Example T-24, (1^1Z,3^4E)-3^3,4,4-Trimethyl-3^1H-2,6-diaza-1(2,7)-pyrrolo[2,1-f][1,2,4]triazine-3(4,1)-pyrazolacyclononan-5-one]"
9,98.4,"Cc1nn2cc1Nc1ncc3c(Cl)cc(n3n1)CCCCNC(=O)C2(C)C [Example T-26, (1^1Z,3^4E)-1^5-Chloro-3^3,4,4-trimethyl-3^1H-2,6-diaza-1(2,7)-pyrrolo[2,1-f][1,2,4]triazine-3(4,1)-pyrazolacyclodecan-5-one]"
10,88,"CC1(C)C(=O)NCCCc2cc(Cl)c3cnc(nn23)Nc2cn1nc2Cl [Example T-27, (1^1Z,3^4E)-1^53^3-Dichloro-4,4-dimethyl-3^1H-2,6-diaza-1(2,7)-pyrrolo[2,1-f][1,2,4]triazine-3(4,1)-pyrazolacyclononan-5-one]"
11,95.6,"Cc1nn2cc1Nc1ncc3c(C(F)(F)F)cc(n3n1)CCCNC(=O)C2(C)C [Example T-29, (1^1Z,3^4E)-3^3,4,4-Trimethyl-1^5-(trifluoromethyl)-3^1H-2,6-diaza-1(2,7)-pyrrolo[2,1-f][1,2,4]triazine-3(4,1)-pyrazolacyclononan-5-one]"
12,61.3,"Cc1nn2cc1Nc1ncc3c(C#N)cc(n3n1)CCCNC(=O)C2(C)C [Example T-30, (1^1Z,3^4E)-3^3,4,4-Trimethyl-5-oxo-3^1H-2,6-diaza-1(2,7)-pyrrolo[2,1-f][1,2,4]triazine-3(4,1)-pyrazolacyclononan-1^5-carbonitrile]"
13,91.6,"Cc1nn2cc1Nc1ncc(C(F)(F)F)c(n1)N(C)CCCNC(=O)C2(C)C [Example T-32, (E)-3^3,4,4,10-Tetramethyl-1^5-(trifluoromethyl)-3^1H-2,6,10-triaza-1(2,4)-pyrimidina-3(4,1)-pyrazolacyclodecan-5-one]"

# More lines, now with the values behind:
row,SMILES,inhibition at 0.1 µM [%]
1,"Cc1nn2cc1Nc1ncc(C(F)(F)F)c(n1)NCCCn1cc(nn1)C2(C)C [Example T-16, (3^4E,5^4Z)-3^3,4,4-Trimethyl-1^5-(trifluoromethyl)-3^1H,5^1H-2,9-diaza-1(2,4)-pyrimidina-5(4,1)-triazole-3(4,1)-pyrazolacyclononane]",86.1
2,"Cc1nn2cc1Nc1ncc(C(F)(F)F)c(n1)NCCCn1ncc(n1)C2(C)C [Example T-17, (3^4E,5^3Z)-3^3,4,4-Trimethyl-1^5-(trifluoromethyl)-3^1H,5^2H-2,9-diaza-1(2,4)-pyrimidina-5(4,2)-triazole-3(4,1)-pyrazolacyclononane]",96.9
3,"Cc1nn2cc1Nc1ncc3c(Cl)cn(c3n1)CCCCN(C)C(=O)C2(C)C [Example T-23, (E)-1^5-Chloro-3^3,4,4,6-tetramethyl-1^7H,3^1H-2,6-diaza-1(2,7)-pyrrolo[2,3-d]pyrimidine-3(4,1)-pyrazolacyclodecan-5-one]",19.1
4,"CC1(C)C(=O)NCCCc2cc(Cl)c3cnc(nn23)Nc2cn1nc2C1CC1 [Example T-28, (1^1Z,3^4E)-1^5-Chloro-3^3-cyclopropyl-4,4-dimethyl-3^1H-2,6-diaza-1(2,7)-pyrrolo[2,1-f][1,2,4]triazine-3(4,1)-pyrazolacyclononan-5-one]",98.3
5,"Cc1nn2cc1Nc1ncc(C(F)(F)F)c(n1)N(C)CCCN(C)C(=O)C2(C)C [Example T-31, (E)-3^3,4,4,6,10-Pentamethyl-1^5-(trifluoromethyl)-3^1H-2,6,10-triaza-1(2,4)-pyrimidina--3(4,1)-pyrazolacyclodecan-5-one]",8.85
6,"Cc1nn2cc1Nc1ncc(C(F)(F)F)c(n1)NCCCN(C)C(=O)C2(C)C [Example T-33, (E)-3^3,4,4,6-Tetramethyl-1^5-(trifluoromethyl)-3^1H-2,6,10-triaza-1(2,4)-pyrimidina-3(4,1)-pyrazolacyclodecan-5-one]",2.45
7,"Cc1nn2cc1Nc1ncc(C(F)(F)F)c(n1)NCCCN(C)CC2(C)C [Example T-34, (E)-3^3,4,4,6-Tetramethyl-1^5-(trifluoromethyl)-3^1H-2,6,10-triaza-1(2,4)-pyrimidina-3(4,1)-pyrazolacyclodecane]",-12.7
8,"Cc1nn2cc1Nc1ncc(C(F)(F)F)c(n1)NCCn1cc(nn1)CC2(C)C [Example T-35, (3^4E,6^4Z)-3^3,4,4-Trimethyl-1^5-(trifluoromethyl)-3^1H,6^1H-2,9-diaza-1(2,4)-pyrimidina-6(4,1)-triazole-3(4,1)-pyrazolacyclononane]",9.41
9,"Cc1nn2cc1Nc1ncc(C(F)(F)F)c(n1)NCCn1ncc(n1)CC2(C)C [Example T-36, (3^4E,6^3Z)-3^3,4,4-Trimethyl-1^5-(trifluoromethyl)-3^1H,6^2H-2,9-diaza-1(2,4)-pyrimidina-6(4,2)-triazole-3(4,1)-pyrazolacyclononane]",28.9
10,"Cc1nn2cc1Nc1ncc(C(F)(F)F)c(n1)NCCCOC(=O)C2(C)C [Example T-37, (E)-3^3,4,4-Trimethyl-1^5-(trifluoromethyl)-3^1H-6-oxa-2,10-diaza-1(2,4)-pyrimidina-3(4,1)-pyrazolacyclodecan-5-one]",83.4
11,"Cc1nn2cc1Nc1ncc(C(F)(F)F)c(n1)NCCC(C)NC(=O)C2(C)C (stereo not drawn) [Example T-38, (E)-3^3,4,4,7-Tetramethyl-1^5-(trifluoromethyl)-3^1H-2,6,10-triaza-1(2,4)-pyrimidina-3(4,1)-pyrazolacyclodecan-5-one]",37.7

# From patent publication EP4620959A1, “CYCLIC COMPOUNDS USED AS MULTI-TARGET KINASE INHIBITORS AND PREPARATION METHOD THEREFOR” (Shanghai Institute of Organic Chemistry, Chinese Academy of …, priority 2022, dated 2024)
